In this test the test system is bcl-xL transfected LNCaP cells. As to the kind of experiment: Drug treatment of bcl-xL transfected and parental LNCaP cells. It counts as cell-based, human. The note with it: for apoptosis induction: parental LNCaP cells or neomycin-expressing control-transfected LNCaP cells; for concentration up to which bcl-xL overexpressing LNCaP clones were resistant: treatment for 24 h. Here is the method:
LNCaP cells transfected with the neomycin-selectable pSFFV/bcl-xL plasmid or with a control, neomycin-resistant expression vector pSFFV. Aliquots containing 10 μg of plasmid and 5 μg of lipofectin reagent (Life technologies, Inc., Gaithersburg, Md.) in serum-free OPTI-MEM (Life Technologies, Inc.) were added to cultured cells. The transfection media was replaced 4 h later with RPMI-10% FBS medium. Individual colonies were selected from these plates after approximately 3–4 weeks of routine maintenance in RPMI-10% FBS containing 0.6 mg/ml G418 sulfate (Geneticin, Life Technologies, Inc.). The bcl-xL-transformed LNCaP cells were cultured in RPMI-10% FBS, supplemented with 0.3 mg/ml G418 sulfate in 5% CO2 atmosphere.
Two clones of LNCaP cells overexpressing bcl-xL protein (1072-4 and 1072-5) have been obtained after transfection of wild type LNCaP cells with the plasmid vector pSFFV/bcl-xL and lipofectin. Also a mock transfectant clone of LNCaP cells carrying neo® resistance gene (1072-3) was used for the control experiments. […] Western blot analysis for bcl-xL protein was performed as described above. […] For the Northern blot analysis, the total RNA was isolated from the cells using TRIZOL reagent (GIBCO BRL), and 20 μg aliquotes were separated in RNA-formaldehyde gel, blotted onto nylon membranes (Schleicher & Schull), UV-linked and prehybridized for two hours at 42° C. in the standard hybridization solution. Then the blot was hybridized overnight with the PCR-amplified fragment of human bcl-xL cDNA at 42° C. Dcl-xL coding fragment was amplified from pSFFV/bcl-xL plasmid using bcl-x specific primers. The primer sequences were: bcl-x-upstream, 5′-[…]-3′ (SEQ ID NO:36); and bcl-x-downstream, 5′-[…]-3′ (SEQ ID NO:37). Twenty five cycles of amplification were performed in DNA Thermal Cycler (Perkin-Elmer, Norwalk, Conn.) at 94° C. (30 sec), 55° C. (30 sec), and 72° C. (30 sec). The PCR products were analysed on a 1.2% agarose gel. The resultant fragment was labeled by random primer method to the specific activity 10^7 cpm/ng of the probe and used for the hybridization. After washings blots were autoradiographed for 24h at −80° C. Blots were stripped of radioactivity and reprobed with a ^32P-labeled G3PDH probe to confirm the equal loading.
Clonal derivatives of bcl-xL transfected LNCaP cells that were overexpressing high amounts of bcl-xL protein were resistant to taxol (up to 100 nM) and mitoxantrone (up to 4 μM) treatment for 24 h. […] This finding strongly supports the hypothesis that bcl-xL gene product is a factor in the development of chemotherapy resistance in hormone-refractory prostate cancer.

The record followed here is patent US7074769B2, “Oligonucleotide inhibitors of bcl-xL” (The Trustees of Columbia University in the City of New York, priority 1998, dated 2006).

Each structure is given as a SMILES string.

Take `O=C1c2c(O)ccc(O)c2C(=O)c2c(NCCNCCO)ccc(NCCNCCO)c21` [mitoxantrone]: the apoptosis induction entry is “induce apoptosis” and the “concentration up to which bcl-xL overexpressing LNCaP clones were resistant” value is given as “up to 4 μM”.

With `CC(=O)O[C@H]1C(=O)[C@@]2(C)[C@H]([C@H](OC(=O)c3ccccc3)[C@]3(O)C[C@H](OC(=O)[C@H](O)[C@@H](NC(=O)c4ccccc4)c4ccccc4)C(C)=C1C3(C)C)[C@]1(OC(C)=O)CO[C@@H]1C[C@@H]2O` [taxol], the apoptosis induction entry is on record as “induce apoptosis” and the “concentration up to which bcl-xL overexpressing LNCaP clones were resistant” value is reported as “up to 100 nM”.
